Measurements published in PMC10167348, “Structural mechanisms of TRPM7 activation and inhibition” (Nature Communications, 2023).

Molecular target: T1, purified TRPM7 reconstituted in lipid bilayers (Mus musculus, UniProt Q923J1)
T1 construct: truncated C-terminally (the corresponding protein residues 1–1280); GFP (N); thrombin cleavage site (LVPRG) (N); made in house; host or cells: HEK 293S GnTI- cells (BacMam baculovirus made in Sf9)
T1 sequence (Q923J1 1-1280): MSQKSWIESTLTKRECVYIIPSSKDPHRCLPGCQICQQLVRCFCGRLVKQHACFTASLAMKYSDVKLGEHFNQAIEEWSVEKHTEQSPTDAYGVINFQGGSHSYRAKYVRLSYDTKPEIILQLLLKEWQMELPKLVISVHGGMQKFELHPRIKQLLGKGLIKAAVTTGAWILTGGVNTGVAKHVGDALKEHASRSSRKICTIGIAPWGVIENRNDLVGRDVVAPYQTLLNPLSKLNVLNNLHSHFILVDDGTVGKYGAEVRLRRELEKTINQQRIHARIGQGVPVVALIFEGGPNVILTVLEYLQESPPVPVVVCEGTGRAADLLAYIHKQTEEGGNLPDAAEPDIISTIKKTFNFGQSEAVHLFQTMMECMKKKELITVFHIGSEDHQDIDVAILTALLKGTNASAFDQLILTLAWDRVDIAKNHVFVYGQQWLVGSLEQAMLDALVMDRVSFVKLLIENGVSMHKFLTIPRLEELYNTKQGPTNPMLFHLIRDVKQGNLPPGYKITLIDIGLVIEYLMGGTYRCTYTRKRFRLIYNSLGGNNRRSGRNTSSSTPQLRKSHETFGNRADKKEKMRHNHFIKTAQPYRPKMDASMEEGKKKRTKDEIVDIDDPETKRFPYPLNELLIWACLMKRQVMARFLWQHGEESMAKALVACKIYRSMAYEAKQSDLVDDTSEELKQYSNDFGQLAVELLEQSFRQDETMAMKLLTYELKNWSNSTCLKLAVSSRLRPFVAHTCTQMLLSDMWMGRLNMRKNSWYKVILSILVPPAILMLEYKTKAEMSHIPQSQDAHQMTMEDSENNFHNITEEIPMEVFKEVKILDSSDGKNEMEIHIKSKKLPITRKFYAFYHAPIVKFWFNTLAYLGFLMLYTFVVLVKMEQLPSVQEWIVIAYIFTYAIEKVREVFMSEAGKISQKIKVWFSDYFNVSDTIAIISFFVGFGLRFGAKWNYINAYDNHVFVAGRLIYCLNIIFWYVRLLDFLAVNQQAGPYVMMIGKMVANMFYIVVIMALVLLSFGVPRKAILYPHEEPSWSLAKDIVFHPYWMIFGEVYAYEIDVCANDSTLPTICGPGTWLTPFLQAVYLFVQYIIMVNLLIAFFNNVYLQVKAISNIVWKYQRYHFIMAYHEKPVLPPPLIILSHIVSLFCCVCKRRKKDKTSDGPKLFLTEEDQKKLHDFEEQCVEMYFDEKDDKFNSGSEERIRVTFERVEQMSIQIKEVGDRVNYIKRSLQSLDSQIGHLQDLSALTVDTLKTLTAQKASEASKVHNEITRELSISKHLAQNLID
Experiment: Planar lipid bilayer single-channel recordings
Type: biochemical
Conditions: 2.5 μM NTB, membrane potential –100 mV, n = 3; Po without agonist 0.02 ± 0.01
Protocol: Planar lipid bilayers measurements were performed as described previously. Briefly, planar lipid bilayers were formed from a 30 mM solution of synthetic lipid mix POPC:POPE:POPG at a 3:1:1 ratio (Anatrace, P516:P416:P616) in n-decane (Sigma-Aldrich). The solution was used to paint a bilayer in an aperture of ∼150 µm diameter in a Meca chip (Nanion). Each cavity in the chip contained an individual integrated Ag/AgCl-microelectrode. The bathing solution contained 150 mM KCl, 0.02 mM MgCl2, 1 µM CaCl2 and 20 mM HEPES (pH 7.2). All the reagents (Sigma-Aldrich) were ultrapure (>99%). The bilayer capacitance was in the range of 5–10 pF.
The purified protein (10 ng/ml) was added to the bilayer-forming lipid mix (1 volume of protein to 1 volume of the lipid mix) and incubated for 30 min at 30 °C. […] Only after the incubated protein-lipid mix was added by painting, the unitary currents were recorded using an Orbit mini device (Nanion) controlled by the pCLAMP 10.2 software (Molecular Devices). Data were low-pass filtered at […] and digitized at 1.22 kHz. Single-channel conductance events, all-points histograms, and other parameters were identified and analyzed using the Clampfit 10.3 software (Molecular Devices). Only recordings with one channel incorporated into the lipid bilayer were subjected to single-channel analysis. […]

For `Oc1ccc2c3c1O[C@H]1c4oc5ccccc5c4C[C@@]4(O)[C@@H](C2)N(CC2CC2)CC[C@]314` [Naltriben, naltriben], which “open probability, Po” value is on record?
The value was 0.44 ± 0.25.
